Structures are written as SMILES. “And” between values parts separate entries of the source, which are not always exact repeats. Equal entries are not always repeated.

For assay [1], the system named is dopaminergic TH-positive neurons injured with MPP+. The assay can be described thus: Survival and neurite network of TH neurons in primary mesencephalic culture injured with MPP+. The class given is cell-based, rat. As to conditions: MPP+ 4 μM 48 h; 1 h pre-incubation. As for the experimental part:
(§1) The aim of the present study was to investigate the neuroprotective effect of MR36014 and MR33583 (at 4 concentrations) on dopaminergic TH-positive neurons injured with MPP^+. The test compounds were pre-incubated for 1 hour before MPP^+ application (4 μM for 48 h). The neuroprotective effect (survival and neurite network) of test compounds was investigated. In addition, the effect on the cytoplasmic alpha-synuclein accumulation was studied.
(§2) Rat dopaminergic neurons were cultured as described by Callizot et al. (2019) PLoS One 14:e0215277 and Visanji et al. (2008) FASEB J. 22:2488-2497. Briefly, pregnant female rat (Wistar) of 15 days of gestation were killed using a deep anesthesia with CO2 chamber and a cervical dislocation. The midbrains obtained from 15-day-old rat embryos (Janvier, France) were dissected under a microscope. […]
(§3) Midbrains were dissociated by trypsinisation for 20 min at 37° C. […] Viable cells were counted in a Neubauer cytometer using the trypan blue exclusion test. […]
(§4) Briefly, on day 6 of culture, the medium was removed, and fresh medium was added, with or without test compounds and with or without MPP^+ for 48 hours diluted in control medium. 6 wells per condition were assessed. […]
(§5) Test compounds were tested in 96-well plate (n=6 culture wells per condition). […] The following conditions were assessed: […]

Another assay concerns α-syn. As to the kind of experiment: α-syn aggregation in TH neurons injured with MPP+. As to conditions: MPP+ 4 μM 48 h; 1 h pre-incubation. The class given is cell-based, rat. On the procedure: as §1, §2, §3, §4, §5
For a further assay, the system named is amyloid plaques. The assay can be described thus: Number of amyloid plaques (thioflavin T) in 5×FAD mouse brain. The class given is in vivo. The conditions noted are these: 1 mg/kg twice a week for 3 months; for Amyloid plaque number in hippocampus: compared to controls. On the procedure:
5×FAD mice received chronic treatments with drugs or vehicle according to 2 different protocols. In each experiment, drugs or vehicle solution were administered i.p. twice a week (1 mg/kg). In “Protocol 1”, mice (n=6-7 mice per group) were treated with compounds for two months, from 2 to 4 months of age. In “Protocol 2”, mice (n=7) were treated with compounds for three months, from 1 month to 4 months of age. At the end of each protocol, mice were anesthetized with a mixture of 100 mg/kg ketamine and 10 mg/kg xylazine in saline solution and perfused transcardially with PBS. Brains were quickly isolated on ice, the olfactory bulbs and cerebellum removed and the two hemispheres divided. One hemisphere was frozen on dry ice and stored at −80° C. for biochemical analysis, while the other was post-fixed in 4% PFA for immunohistochemistry (IHC).
Thirty-micrometer-thick sections were cut using a vibratome (Microm HM 650V, Thermo Scientific, Saint Herblain, France) and stored in cryoprotectant medium at −20° C. For the labeling of amyloid plaques, free-floating tissue sections of frontal cortex, hippocampus and entorhinal cortex (coordinates from the bregma: frontal cortex=1.98 mm, hippocampus=−1.94 mm, entorhinal cortex=−3.08 mm) were extensively washed in PBS and then incubated in blocking solution (PBS; 3% BSA; 0.1% Triton X-100) for 1 h. Sections were stained with Hoechst dye (1:1000, Life Technologies, Saint Aubin, France) for 15 minutes to detect cell nuclei and then with freshly prepared thioflavin T solution (#T3516-5G, Sigma-Aldrich) (final concentration: 0.01 mg/ml in blocking buffer) for 15 minutes. After washing in 70% ethanol for 5 minutes, samples were mounted on poly-lysine slides with coverslips. For GFAP (glial fibrillary acidic protein) staining, free-floating brain sections were blocked as before and incubated with polyclonal rabbit anti-GFAP (1:1000, Z0334, Dako, Les Ullis, France) at 4° C. overnight. After thioflavin T staining and washing with 70% ethanol, the secondary Alexafluor 594 goat anti-rabbit antibody (1:1000, A11012, Life Technologies) was added for 2 h. PBS washes and mounting were performed as described before.
Images were acquired with an Axiolmager Z1 microscope (Carl Zeiss S.A.S., Marly le Roi, France). Analysis of thioflavin T staining was performed blindly and data are presented as the mean number of particles per mm^2 in two to three tissue sections from the same brain area/animal (Image J software). GFAP expression was quantified using Image J software and results are expressed as area fractions.
28 female 5×FAD mice (C57BL/6J genetic background) were used in this study. Mice received vehicle or compounds (1 mg/kg) i.p., twice a week for three months, from 1 to 4 months of age.
Anti-amyloid effect. Frontal cortex, hippocampus and entorhinal cortex were analyzed as representative areas of 5×FAD mouse brain (frontal, median and caudal sections) and of human brain regions that are affected early by Alzheimer's disease and are highly enriched in amyloid deposits.

Turning to `COc1cc(N)c(F)cc1C(=O)CCC1CCN(CC2CCCC2)CC1` [MR33583], the “concentrations improving TH neuron survival” value in assay [1] was found to be 100 nM. Further, the “concentrations reducing accumulation/aggregation of α-syn” value in the assay on α-syn was 50 nM and 100 nM.

As for `COc1cc(N)c(Cl)cc1C(=O)CCC1CCN(CC2CCCCC2)CC1` [Donecopride], the “Amyloid plaque number in hippocampus” value with amyloid plaques is “not significantly different”. Besides, in the assay on amyloid plaques (compared to vehicle), the “reduction of the number of amyloid plaques in entorhinal cortex” value was 24±4% and the “reduction of the number of amyloid plaques in frontal cortex” value is 16±3%.

For the compound `COc1cc(N)c(F)cc1C(=O)CCC1CCN(CC2CCCCC2)CC1` [Flucopride], the “Amyloid plaque number in hippocampus” value in the assay with amyloid plaques is given as “not significantly different”. The “reduction of the number of amyloid plaques in entorhinal cortex” value with amyloid plaques (compared to vehicle) stood at 28±6%.

With `COc1cc(N)c(F)cc1C(=O)CCC1CCN(CC2CCCCCC2)CC1` [MR36014], the “concentrations protecting the neurite network of TH neurons” value in assay [1] was “all investigated doses”. The “concentrations reducing accumulation/aggregation of α-syn” value in the assay on α-syn is on record as “all investigated doses”.
